The text below walks through data of ChEMBL document CHEMBL4325853, “Design, synthesis and antibacterial evaluation of 2,4-disubstituted-6-thiophenyl-pyrimidines” (Eur J Med Chem, 2019).

≈ marks a conversion by molar mass, not a printed value. Calls of active or inactive are those of the source. No cut-off for these calls is given here.

Broadly, the MIC90 is an inhibitory concentration at the 90% level, which refers to growth in some studies and to a panel of isolates in others. Higher therefore signals weaker potency.

For assay [1], the system named is Staphylococcus aureus. Briefly: Ratio of MIC for Staphylococcus aureus ATCC 29213 after and before 11 to 21 serial passages. The assay is classed as functional.
Assay [2] has as its system Bacillus subtilis. Briefly: Antibacterial activity against Bacillus subtilis 168 after 18 hrs by broth microdilution method. To be noted: subsp. subtilis str. 168, 18 h. The assay is classed as functional. (In general: Dilution methods test growth across graded concentrations, often in twofold steps.)
Assay [3] relates to Staphylococcus aureus. Briefly: Antibacterial activity against Staphylococcus aureus ATCC 29213 after 18 hrs by broth microdilution method. The assay is classed as functional. To be noted: ATCC 29213, 18 h.
The target in assay [4] is T1, Cell division protein FtsZ (Staphylococcus aureus) (UniProt P0A031).
T1 sequence (whole entry): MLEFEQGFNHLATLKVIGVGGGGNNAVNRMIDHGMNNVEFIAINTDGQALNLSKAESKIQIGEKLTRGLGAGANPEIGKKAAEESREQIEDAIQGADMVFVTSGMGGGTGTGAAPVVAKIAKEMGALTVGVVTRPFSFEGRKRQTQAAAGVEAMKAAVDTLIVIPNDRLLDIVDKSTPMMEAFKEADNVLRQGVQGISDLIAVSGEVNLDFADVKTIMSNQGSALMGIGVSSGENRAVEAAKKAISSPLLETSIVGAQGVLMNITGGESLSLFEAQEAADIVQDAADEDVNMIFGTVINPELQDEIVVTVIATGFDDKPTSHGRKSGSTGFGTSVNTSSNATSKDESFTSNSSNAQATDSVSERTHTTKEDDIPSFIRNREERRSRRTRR
The experiment in a line: Inhibition of recombinant Staphylococcus aureus FtsZ GTPase activity assessed as reduction in inorganic phosphate formation after 30 mins by colorimetric method.

The test system of assay [5] is Enterococcus faecium. Briefly: Antibacterial activity against Enterococcus faecium ATCC 49624 after 18 hrs by broth microdilution method. The assay is classed as functional. To be noted: ATCC 49624, 18 h.
The target in assay [6] is T1, Cell division protein FtsZ (Staphylococcus aureus). Briefly: Inhibition of recombinant Staphylococcus aureus FtsZ polymerization at 8 ug/ml by 90 degree light scattering-based fluorescence spectrometric analysis.
Assay [7] concerns Enterococcus faecalis. The experiment in a line: Antibacterial activity against Enterococcus faecalis ATCC 29212 after 18 hrs by broth microdilution method. The assay is classed as functional. To be noted: ATCC 29212, 18 h.
For assay [8], the system named is Staphylococcus epidermidis. The experiment in a line: Antibacterial activity against Staphylococcus epidermidis ATCC 12228 after 18 hrs by broth microdilution method. The assay is classed as functional. To be noted: ATCC 12228, 18 h.
The test system of assay [9] is Escherichia coli. Briefly: Antibacterial activity against Escherichia coli ATCC 25922 after 18 hrs by broth microdilution method. The assay is classed as functional. To be noted: ATCC 25922, 18 h.
In assay [10] the test system is Staphylococcus aureus. Briefly: Antibacterial activity against Staphylococcus aureus ATCC 29213 after 10 passages by broth microdilution method. The assay is classed as functional, organism-based.
In assay [11] the test system is Staphylococcus aureus. The experiment in a line: Antibacterial activity against methicillin-resistant Staphylococcus aureus ATCC 33591 after 18 hrs by broth microdilution method. To be noted: ATCC 33591, 18 h. The assay is classed as functional.
Assay [12] has as its system Enterococcus faecalis. Briefly: Antibacterial activity against vancomycin-resistant Enterococcus faecalis ATCC 700221 after 18 hrs by broth microdilution method. To be noted: ATCC 700221, 18 h. The assay is classed as functional.
In assay [13] the test system is Staphylococcus aureus. Briefly: Antibacterial activity against methicillin-resistant Staphylococcus aureus ATCC BAA41 after 18 hrs by broth microdilution method. To be noted: ATCC BAA41, 18 h. The assay is classed as functional.
Assay [14] relates to Staphylococcus aureus. The experiment in a line: Antibacterial activity against methicillin-resistant Staphylococcus aureus ATCC BAA1720 after 18 hrs by broth microdilution method. The assay is classed as functional. To be noted: ATCC BAA1720, 18 h.
The subject of assay [15] is Staphylococcus aureus. The experiment in a line: Antibacterial activity against methicillin-resistant Staphylococcus aureus ATCC 43300 after 18 hrs by broth microdilution method. The assay is classed as functional. To be noted: ATCC 43300, 18 h.
Assay [16] has as its system Staphylococcus aureus. Briefly: Antibacterial activity against methicillin-resistant Staphylococcus aureus ATCC 33592 after 18 hrs by broth microdilution method. The assay is classed as functional. To be noted: ATCC 33592, 18 h.
Assay [17] deals with Enterococcus faecalis. Briefly: Antibacterial activity against vancomycin-resistant Enterococcus faecalis ATCC 51575 after 18 hrs by broth microdilution method. To be noted: ATCC 51575, 18 h. The assay is classed as functional.
The test system of assay [18] is Enterococcus faecium. The experiment in a line: Potency index, ratio of berberine MIC to test compound MIC for Enterococcus faecium ATCC 49624. The assay is classed as functional.
Assay [19] deals with Staphylococcus aureus. The experiment in a line: Potency index, ratio of berberine MIC to test compound MIC for Staphylococcus aureus ATCC 29213. The assay is classed as functional.
For assay [20], the system named is Staphylococcus epidermidis. The experiment in a line: Potency index, ratio of berberine MIC to test compound MIC for Staphylococcus epidermidis ATCC 12228. The assay is classed as functional.
Assay [21] relates to Enterococcus faecalis. The experiment in a line: Potency index, ratio of berberine MIC to test compound MIC for Enterococcus faecalis ATCC 29212. The assay is classed as functional.

`Cc1nc(CCN2CCCN(Cc3ccc(C(C)C)cc3)CC2)cc(-c2cccs2)n1`: the outcome in assay [1] and in [10] was Active. For the same molecule, the MIC90 in assay [2] came to 64 µg/mL (≈ 147 µM); in assay [3], 32 µg/mL (≈ 73.6 µM); in assay [5], 64 µg/mL (≈ 147 µM); in assay [7], 64 µg/mL (≈ 147 µM); in assay [8] it was 32 µg/mL (≈ 73.6 µM); in assay [9] it was 128 µg/mL (≈ 294 µM). For the same molecule, in assay [4], the inhibition entry is “Dose-dependent effect”. Moreover, the inhibition result in [6] was “Active”.
In the case of `COc1ccc2cc3[n+](cc2c1OC)CCc1cc2c(cc1-3)OCO2` [BERBERINE], the MIC90 in assay [2] was 128 µg/mL; in [3] it was 128 µg/mL; in assay [11], 192 µg/mL; in assay [12], > 192 µg/mL; in assay [13], 192 µg/mL; in assay [5], > 192 µg/mL. Also, the MIC90 in assay [7] was > 192 µg/mL; in assay [14] it was 192 µg/mL; in [15], 192 µg/mL; in [8] it was 96 µg/mL; in assay [16] it was 192 µg/mL; in assay [17], > 192 µg/mL. Also, the MIC90 in [9] was > 192 µg/mL.
As to `Brc1ccc(CN2CCCN(CCc3cc(-c4cccs4)nc(-c4ccncc4)n3)CC2)cc1`, the Ratio in assay [18], in [19], in [20] and in assay [21] was 50 - 100 each time. The MIC90 was 4 µg/mL (≈ 7.48 µM) in assay [2]; 4 µg/mL (≈ 7.48 µM) in [3]; 8 µg/mL (≈ 15 µM) in [5]; 8 µg/mL (≈ 15 µM) in assay [7]; 4 µg/mL (≈ 7.48 µM) in assay [8]; 128 µg/mL (≈ 239 µM) in assay [9].
With `Fc1ccc(CN2CCCN(CCc3cc(-c4cccs4)nc(-c4ccncc4)n3)CC2)cc1F`, the Ratio in assay [18], in [19], in assay [20] and in [21] was 50 - 100 throughout. Further, the MIC90 came to 4 µg/mL (≈ 8.14 µM) in assay [2]; 4 µg/mL (≈ 8.14 µM) in [3]; 8 µg/mL (≈ 16.3 µM) in assay [5]; 8 µg/mL (≈ 16.3 µM) in assay [7]; 4 µg/mL (≈ 8.14 µM) in assay [8]; 128 µg/mL (≈ 260 µM) in [9].
